{
  "source": "patent US8338465B2",
  "about": "“Cyclic carboxylic acid rhodanine derivatives for the treatment and prevention of tuberculosis” (priority 2006, dated 2012)",
  "data": [
    {"molecular_target": "T1, dihydrolipoamide acyltransferase (DlaT) (Mycobacterium tuberculosis, UniProt P9WIS7)", "T1 sequence (P9WIS7 1-553)": "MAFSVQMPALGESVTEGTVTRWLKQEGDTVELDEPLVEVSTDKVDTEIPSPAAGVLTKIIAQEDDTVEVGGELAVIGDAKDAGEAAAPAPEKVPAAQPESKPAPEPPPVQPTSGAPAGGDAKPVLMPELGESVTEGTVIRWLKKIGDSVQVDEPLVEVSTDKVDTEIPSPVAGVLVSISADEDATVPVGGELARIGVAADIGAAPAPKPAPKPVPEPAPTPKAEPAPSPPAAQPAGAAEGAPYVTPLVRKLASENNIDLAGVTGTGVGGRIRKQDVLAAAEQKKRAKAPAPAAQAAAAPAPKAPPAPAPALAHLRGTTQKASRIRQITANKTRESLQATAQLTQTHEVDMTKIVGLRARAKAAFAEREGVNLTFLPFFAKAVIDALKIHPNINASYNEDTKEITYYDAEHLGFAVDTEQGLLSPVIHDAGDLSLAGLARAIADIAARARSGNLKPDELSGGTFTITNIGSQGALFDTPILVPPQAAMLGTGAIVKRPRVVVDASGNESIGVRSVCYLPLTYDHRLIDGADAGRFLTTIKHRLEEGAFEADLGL", "test": "DlaT inhibition (Dlat IC50); DTNB peroxidase assay with Lpd, DlaT and AhpD", "type": "biochemical", "conditions": "Dlat IC50 category", "units": {"IC50": "µM"}, "values": [
      {"smiles": "CNS(=O)(=O)c1ccc(-c2ccc(C=C3SC(=S)N(C4CCCC(C(=O)O)C4)C3=O)o2)cc1", "note": "(stereo not shown) [Compound C83, 3-{5-[5-(4-Methylsulfamoyl-phenyl)-furan-2-ylmethylene]-4-oxo-2-thioxo-thiazolidin-3-yl}-cyclohexanecarboxylic acid]", "IC50": "11 to 40"},
      {"smiles": "CNS(=O)(=O)c1ccc(-c2ccc(C=C3SC(=S)N(C4CCC(C(=O)O)CC4)C3=O)o2)cc1", "note": "(stereo not shown) [Compound C84, 4-{5-[5-(4-Methylsulfamoyl-phenyl)-furan-2-ylmethylene]-4-oxo-2-thioxo-thiazolidin-3-yl}-cyclohexanecarboxylic acid]", "IC50": "< 10"},
      {"smiles": "CN(C)S(=O)(=O)c1ccc(-c2ccc(C=C3SC(=S)N(C4CCCC(C(=O)O)C4)C3=O)o2)cc1", "note": "(stereo not shown) [Compound C85, 3-{5-[5-(4-Dimethylsulfamoyl-phenyl)-furan-2-ylmethylene]-4-oxo-2-thioxo-thiazolidin-3-yl}-cyclohexanecarboxylic acid]", "IC50": "41 to 80"},
      {"smiles": "CN(C)S(=O)(=O)c1ccc(-c2ccc(C=C3SC(=S)N(C4CCC(C(=O)O)CC4)C3=O)o2)cc1", "note": "(stereo not shown) [Compound C86, 4-{5-[5-(4-Dimethylsulfamoyl-phenyl)-furan-2-ylmethylene]-4-oxo-2-thioxo-thiazolidin-3-yl}-cyclohexanecarboxylic acid]", "IC50": "11 to 40"},
      {"smiles": "O=C(O)c1ccccc1NN1C(=O)C(=Cc2ccc(-c3ccccc3Cl)o2)SC1=S", "note": "[Compound D1, 2-{5-[1-[5-(2-chloro-phenyl)-furan-2-yl]-methylidene]-4-oxo-2-thioxo-thiazolidin-3-ylamino}-benzoic acid]", "IC50": "< 10"},
      {"smiles": "O=C(O)c1ccccc1NN1C(=O)C(=Cc2ccc(-c3cccc(C(F)(F)F)c3)o2)SC1=S", "note": "[Compound D3, 2-{4-oxo-2-thioxo-5-[1-[5-(3-trifluoromethyl-phenyl)-furan-2-yl]-methylidene]-thiazolidin-3-ylamino}-benzoic acid]", "IC50": "< 10"},
      {"smiles": "O=C(O)c1ccccc1NN1C(=O)C(=Cc2ccc(-c3cccc([N+](=O)[O-])c3)o2)SC1=S", "note": "[Compound D4, 2-{5-[1-[5-(3-nitro-phenyl)-furan-2-yl]-methylidene]-4-oxo-2-thioxo-thiazolidin-3-ylamino}-benzoic acid]", "IC50": "< 10"},
      {"smiles": "CC(C)(C)c1ccc(O)c(-c2ccc(C=C3SC(=S)N(Nc4ccccc4C(=O)O)C3=O)o2)c1", "note": "[Compound D5, 2-{5-[1-[5-(5-tert-butyl-2-hydroxy-phenyl)-furan-2-yl]-methylidene]-4-oxo-2-thioxo-thiazolidin-3-ylamino}-benzoic acid]", "IC50": "< 10"},
      {"smiles": "O=C(O)c1ccccc1NN1C(=O)C(=Cc2ccc(-c3ccc(F)cc3F)o2)SC1=S", "note": "[Compound D7, 2-{5-[1-[5-(2,4-difluoro-phenyl)-furan-2-yl]-methylidene]-4-oxo-2-thioxo-thiazolidin-3-ylamino}-benzoic acid]", "IC50": "< 10"},
      {"smiles": "Cc1ccc(-c2ccc(C=C3SC(=S)N(Nc4ccccc4C(=O)O)C3=O)o2)c(C)c1", "note": "[Compound D8, 2-{5-[1-[5-(2,4-dimethyl-phenyl)-furan-2-yl]-methylidene]-4-oxo-2-thioxo-thiazolidin-3-ylamino}-benzoic acid]", "IC50": "< 10"},
      {"smiles": "COc1ccc(-c2ccc(C=C3SC(=S)N(Nc4ccccc4C(=O)O)C3=O)o2)c(C)c1", "note": "[Compound D9, 2-{5-[1-[5-(4-methoxy-2-methyl-phenyl)-furan-2-yl]-methylidene]-4-oxo-2-thioxo-thiazolidin-3-ylamino}-benzoic acid]", "IC50": "< 10"},
      {"smiles": "Cc1cc(F)ccc1-c1ccc(C=C2SC(=S)N(Nc3ccccc3C(=O)O)C2=O)o1", "note": "[Compound D10, 2-{5-[1-[5-(4-fluoro-2-methyl-phenyl)-furan-2-yl]-methylidene]-4-oxo-2-thioxo-thiazolidin-3-ylamino}-benzoic acid]", "IC50": "< 10"},
      {"smiles": "Cc1ccc(-c2ccc(C=C3SC(=S)N(Nc4ccccc4C(=O)O)C3=O)o2)c(F)c1", "note": "[Compound D11, 2-{5-[1-[5-(2-fluoro-4-methyl-phenyl)-furan-2-yl]-methylidene]-4-oxo-2-thioxo-thiazolidin-3-ylamino}-benzoic acid]", "IC50": "< 10"},
      {"smiles": "O=C(O)c1ccccc1NN1C(=O)C(=Cc2ccc(-c3ccccc3O)o2)SC1=S", "note": "[Compound D12, 2-{5-[1-[5-(2-Hydroxy-phenyl)-furan-2-yl]-methylidene]-4-oxo-2-thioxo-thiazolidin-3-ylamino}-benzoic acid]", "IC50": "< 10"},
      {"smiles": "Cc1ccc(-c2ccc(C=C3SC(=S)N(Nc4ccccc4C(=O)O)C3=O)o2)cc1", "note": "[Compound D13, 2-{4-oxo-2-thioxo-5-[1-(5-p-tolyl-furan-2-yl)-methylidene]-thiazolidin-3-ylamino}-benzoic acid]", "IC50": "< 10"},
      {"smiles": "COc1ccc(-c2ccc(C=C3SC(=S)N(Nc4ccccc4C(=O)O)C3=O)o2)cc1", "note": "[Compound D14, 2-{5-[1-[5-(4-methoxy-phenyl)-furan-2-yl]-methylidene]-4-oxo-2-thioxo-thiazolidin-3-ylamino}-benzoic acid]", "IC50": "< 10"},
      {"smiles": "Cc1ccccc1-c1cccc(C=C2SC(=S)N(Nc3ccccc3C(=O)O)C2=O)n1", "note": "[Compound D15, 2-[4-Oxo-2-thioxo-5-(6-o-tolyl-pyridin-2-ylmethylene)-thiazolidin-3-ylamino]-benzoic acid]", "IC50": "11 to 40"},
      {"smiles": "O=C(O)c1cccc(NN2C(=O)C(=Cc3ccc(-c4ccccc4Cl)o3)SC2=S)c1", "note": "[Compound D16, 3-{5-[1-[5-(2-chloro-phenyl)-furan-2-yl]-methylidene]-4-oxo-2-thioxo-thiazolidin-3-ylamino}-benzoic acid]", "IC50": "< 10"},
      {"smiles": "O=C(O)c1cccc(NN2C(=O)C(=Cc3ccc(-c4cccc(C(F)(F)F)c4)o3)SC2=S)c1", "note": "[Compound D17, 3-{5-[1-[5-(3-trifluoromethyl-phenyl)-furan-2-yl]-methylidene]-4-oxo-2-thioxo-thiazolidin-3-ylamino}-benzoic acid]", "IC50": "< 10"},
      {"smiles": "O=C(O)c1cccc(NN2C(=O)C(=Cc3ccc(-c4ccc(Cl)cc4)o3)SC2=S)c1", "note": "[Compound D18, 3-{5-[1-[5-(4-chloro-phenyl)-furan-2-yl]-methylidene]-4-oxo-2-thioxo-thiazolidin-3-ylamino}-benzoic acid]", "IC50": "< 10"},
      {"smiles": "COc1ccc(-c2ccc(C=C3SC(=S)N(Nc4ccccc4C(=O)O)C3=O)o2)c(OC)c1", "note": "[Compound D19, 2-{5-[1-[5-(2,4-dimethoxy-phenyl)-furan-2-yl]-methylidene]-4-oxo-2-thioxo-thiazolidin-3-ylamino}-benzoic acid]", "IC50": "< 10"},
      {"smiles": "O=C(O)c1ccc(NN2C(=O)C(=Cc3ccc(-c4ccccc4Cl)o3)SC2=S)cc1", "note": "[Compound D20, 4-{5-[5-(2-Chloro-phenyl)-furan-2-ylmethylene]-4-oxo-2-thioxo-thiazolidin-3-ylamino}-benzoic acid]", "IC50": "11 to 40"},
      {"smiles": "O=C(O)c1ccc(NN2C(=O)C(=Cc3ccc(-c4ccc(Cl)cc4)o3)SC2=S)cc1", "note": "[Compound D21, 4-{5-[5-(4-Chloro-phenyl)-furan-2-ylmethylene]-4-oxo-2-thioxo-thiazolidin-3-ylamino}-benzoic acid]", "IC50": "< 10"},
      {"smiles": "O=C(O)c1ccccc1NN1C(=O)C(=Cc2ccc(-c3ccc4[nH]ccc4c3)o2)SC1=S", "note": "[Compound D22, 2-{5-[5-(1H-Indol-5-yl)-furan-2-ylmethylene]-4-oxo-2-thioxo-thiazolidin-3-ylamino}-benzoic acid]", "IC50": "< 10"},
      {"smiles": "Cc1cc(Cl)ccc1-c1ccc(C=C2SC(=S)N(Nc3ccccc3C(=O)O)C2=O)o1", "note": "[Compound D23, 2-{5-[1-[5-(4-chloro-2-methyl-phenyl)-furan-2-yl]-methylidene]-4-oxo-2-thioxo-thiazolidin-3-ylamino}-benzoic acid]", "IC50": "< 10"},
      {"smiles": "Cc1cccc(C)c1-c1ccc(C=C2SC(=S)N(Nc3ccccc3C(=O)O)C2=O)o1", "note": "[Compound D24, 2-{5-[5-(2,6-Dimethyl-phenyl)-furan-2-ylmethylene]-4-oxo-2-thioxo-thiazolidin-3-ylamino}-benzoic acid]", "IC50": "< 10"},
      {"smiles": "COc1cc(F)ccc1-c1ccc(C=C2SC(=S)N(Nc3ccccc3C(=O)O)C2=O)o1", "note": "[Compound D25, 2-{5-[1-[5-(4-fluoro-2-methoxy-phenyl)-furan-2-yl]-methylidene]-4-oxo-2-thioxo-thiazolidin-3-ylamino}-benzoic acid]", "IC50": "< 10"},
      {"smiles": "COc1ccc(-c2ccc(C=C3SC(=S)N(Nc4ccccc4C(=O)O)C3=O)o2)cc1F", "note": "[Compound D26, 2-{5-[1-[5-(3-fluoro-4-methoxy-phenyl)-furan-2-yl]-methylidene]-4-oxo-2-thioxo-thiazolidin-3-ylamino}-benzoic acid]", "IC50": "< 10"},
      {"smiles": "O=C(O)c1ccccc1NN1C(=O)C(=Cc2ccc(-c3ccccc3OCc3ccccc3)o2)SC1=S", "note": "[Compound D27, 2-{5-[1-[5-(2-benzyloxy-phenyl)-furan-2-yl]-methylidene]-4-oxo-2-thioxo-thiazolidin-3-ylamino}-benzoic acid]", "IC50": "11 to 40"},
      {"smiles": "Cc1cc(C)c(-c2ccc(C=C3SC(=S)N(Nc4ccccc4C(=O)O)C3=O)o2)c(C)c1", "note": "[Compound D28, 2-{4-Oxo-2-thioxo-5-[5-(2,4,6-trimethyl-phenyl)-furan-2-ylmethylene]-thiazolidin-3-ylamino}-benzoic acid]", "IC50": "< 10"},
      {"smiles": "Cc1cc(N(C)C)ccc1-c1ccc(C=C2SC(=S)N(Nc3ccccc3C(=O)O)C2=O)o1", "note": "[Compound D29, 2-{5-[5-(4-Dimethylamino-2-methyl-phenyl)-furan-2-ylmethylene]-4-oxo-2-thioxo-thiazolidin-3-ylamino}-benzoic acid]", "IC50": "11 to 40"}
    ]}
  ]
}
